Experimental data published in patent publication US20250215030A1, “STAT MODULATORS AND USES THEREOF” (Recludix Pharma, Inc., priority 2022, published 2025).

Assays:
[1] = biological target: T1, Recombinant STAT3 protein (STAT3(G127-I722)) (Homo sapiens, UniProt P40763); test: STAT3 Fluorescence Polarization (FP) Assay; assay type: binding; settings: STAT3(G127-I722) 25 nM, probe 5-FAM-GpYLPQTV-NH2 2 nM, 45-minute incubation
T1 construct: STAT3(G127-I722)
Outline: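 Serially diluted compounds (1% DMSO) were mixed with 2 nM fluorescent phosphotyrosine peptide and 25 nM STAT3 construct G127-I722, pH 7.4, incubated 45 min at room temperature. IC50 values from fitted polarization curves are reported as categories A (≤100 nM), B, C, D (>10 μM).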

[2] = biological target: T2, Recombinant STAT6 protein (STAT6(W123-T658)) (Homo sapiens, UniProt P42226); test: STAT6 Fluorescence Polarization (FP) Assay; assay type: binding; settings: STAT6(W123-T658) 250 nM, probe 5-FAM-ApYKPFQDLI-NH2 2 nM, 45-minute incubation
T2 construct: STAT6(W123-T658)
T2 sequence (P42226 123-658): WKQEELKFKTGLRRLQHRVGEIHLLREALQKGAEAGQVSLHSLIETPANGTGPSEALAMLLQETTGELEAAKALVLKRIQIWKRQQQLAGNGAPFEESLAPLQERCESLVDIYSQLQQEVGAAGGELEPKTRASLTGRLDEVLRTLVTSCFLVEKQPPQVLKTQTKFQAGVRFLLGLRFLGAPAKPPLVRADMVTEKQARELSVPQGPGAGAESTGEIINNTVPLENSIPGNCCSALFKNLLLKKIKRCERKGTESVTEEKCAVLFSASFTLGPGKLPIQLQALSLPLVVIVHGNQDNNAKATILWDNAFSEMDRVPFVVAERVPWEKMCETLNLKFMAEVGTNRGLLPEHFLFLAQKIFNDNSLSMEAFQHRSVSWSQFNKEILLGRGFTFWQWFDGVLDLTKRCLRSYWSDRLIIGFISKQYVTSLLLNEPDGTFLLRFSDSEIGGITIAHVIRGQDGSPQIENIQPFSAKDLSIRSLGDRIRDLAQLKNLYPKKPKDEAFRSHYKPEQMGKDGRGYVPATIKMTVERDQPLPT
Outline: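 Competitive displacement of a fluorescent phosphotyrosine peptide (2 nM) from recombinant STAT6 W123-T658 (250 nM), 45 min at room temperature in 10 mM HEPES pH 7.4, 50 mM NaCl, 2 mM DTT. mP fitted against log compound for IC50, grouped A (≤300 nM) to D (>30 μM).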

T1 sequence (P40763 127-722, species assumed): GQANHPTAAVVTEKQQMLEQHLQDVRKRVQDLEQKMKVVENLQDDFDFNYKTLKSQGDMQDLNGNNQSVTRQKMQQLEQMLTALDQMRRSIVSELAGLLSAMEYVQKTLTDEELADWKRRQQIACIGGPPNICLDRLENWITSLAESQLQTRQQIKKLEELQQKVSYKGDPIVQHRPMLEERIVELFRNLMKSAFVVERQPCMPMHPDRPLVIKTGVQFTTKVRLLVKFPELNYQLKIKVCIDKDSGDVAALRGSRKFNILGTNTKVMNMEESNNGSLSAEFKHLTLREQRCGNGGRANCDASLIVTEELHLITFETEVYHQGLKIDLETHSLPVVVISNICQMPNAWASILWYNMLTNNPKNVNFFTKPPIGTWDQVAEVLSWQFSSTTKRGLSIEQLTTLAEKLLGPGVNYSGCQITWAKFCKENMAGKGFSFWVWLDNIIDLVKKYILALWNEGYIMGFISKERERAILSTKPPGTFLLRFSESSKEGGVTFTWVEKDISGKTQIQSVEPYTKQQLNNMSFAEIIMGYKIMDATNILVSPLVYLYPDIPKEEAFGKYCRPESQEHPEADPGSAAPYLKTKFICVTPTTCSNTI

| SMILES | IC50 [1] | IC50 [2] |
| --- | --- | --- |
| Cc1nnc(C2CN(C(=O)[C@@H]3CC[C@@H]4C[C@@H]5C[C@@H]5C[C@H](NC(=O)c5cc6cc(C(F)(F)P(=O)(O)O)ccc6s5)C(=O)N43)C2)[nH]1 [Compound 81, (difluoro(2-(((3S,6S,7aR,8aS,9aR)-3-(3-(5-methyl-4H-1,2,4-triazol-3-yl)azetidine-1-carbonyl)-5-oxodecahydro-1H-cyclopropa[d]pyrrolo[1,2-a]azocin-6-yl)carbamoyl)benzo[b]thiophen-5-yl)methyl)phosphonic acid] | < 100 nM | 300 to 3000 nM |
| Cc1nnc(C2(C)CN(C(=O)[C@@H]3CC[C@@H]4C[C@@H]5C[C@@H]5C[C@H](NC(=O)c5cc6cc(C(F)(F)P(=O)(O)O)ccc6s5)C(=O)N43)C2)o1 [Compound 82, (difluoro(2-(((3S,6S,7aR,8aS,9aR)-3-(3-methyl-3-(5-methyl-1,3,4-oxadiazol-2-yl)azetidine-1-carbonyl)-5-oxodecahydro-1H-cyclopropa[d]pyrrolo[1,2-a]azocin-6-yl)carbamoyl)benzo[b]thiophen-5-yl)methyl)phosphonic acid] | < 100 nM | 300 to 3000 nM |
| COCC1(c2ccccc2)CN(C(=O)[C@@H]2CC[C@@H]3C[C@@H]4C[C@@H]4C[C@H](NC(=O)c4cc5cc(C(F)(F)P(=O)(O)O)ccc5s4)C(=O)N32)C1 [Compound 84, (difluoro(2-(((3S,6S,7aR,8aS,9aR)-3-(3-(methoxymethyl)-3-phenylazetidine-1-carbonyl)-5-oxodecahydro-1H-cyclopropa[d]pyrrolo[1,2-a]azocin-6-yl)carbamoyl)benzo[b]thiophen-5-yl)methyl)phosphonic acid] | < 100 nM | 3000 to 30000 nM |
| Cc1ccccc1C1CN(C(=O)[C@@H]2CC[C@@H]3C[C@H]4C[C@H]4C[C@H](NC(=O)c4cc5cc(C(F)(F)P(=O)(O)O)ccc5s4)C(=O)N32)C1 [Compound 85, (difluoro(2-(((3S,6S,7aS,8aR,9aR)-5-oxo-3-(3-(o-tolyl)azetidine-1-carbonyl)decahydro-1H-cyclopropa[d]pyrrolo[1,2-a]azocin-6-yl)carbamoyl)benzo[b]thiophen-5-yl)methyl)phosphonic acid] | < 100 nM | 300 to 3000 nM |
| O=C(N[C@H]1C[C@@H]2C[C@@H]2C[C@H]2CC[C@@H](C(=O)N3CC(O)(c4ccccn4)C3)N2C1=O)c1cc2cc(C(F)(F)P(=O)(O)O)ccc2s1 [Compound 87, (difluoro(2-(((3S,6S,7aS,8aR,9aR)-3-(3-hydroxy-3-(pyridin-2-yl)azetidine-1-carbonyl)-5-oxodecahydro-1H-cyclopropa[d]pyrrolo[1,2-a]azocin-6-yl)carbamoyl)benzo[b]thiophen-5-yl)methyl)phosphonic acid] | < 100 nM | 3000 to 30000 nM |
| O=C(N[C@H]1C[C@@H]2C[C@@H]2C[C@H]2CC[C@@H](C(=O)N3CC(N4CCOCC4)C3)N2C1=O)c1cc2cc(C(F)(F)P(=O)(O)O)ccc2s1 [Compound 91, (difluoro(2-(((3S,6S,7aS,8aR,9aR)-3-(3-morpholinoazetidine-1-carbonyl)-5-oxodecahydro-1H-cyclopropa[d]pyrrolo[1,2-a]azocin-6-yl)carbamoyl)benzo[b]thiophen-5-yl)methyl)phosphonic acid] | 100 to 1000 nM | 3000 to 30000 nM |
| CC1(C(=O)N2CCOCC2)CN(C(=O)[C@@H]2CC[C@@H]3C[C@H]4C[C@H]4C[C@H](NC(=O)c4cc5cc(C(F)(F)P(=O)(O)O)ccc5s4)C(=O)N32)C1 [Compound 93, (difluoro(2-(((3S,6S,7aS,8aR,9aR)-3-(3-methyl-3-(morpholine-4-carbonyl)azetidine-1-carbonyl)-5-oxodecahydro-1H-cyclopropa[d]pyrrolo[1,2-a]azocin-6-yl)carbamoyl)benzo[b]thiophen-5-yl)methyl)phosphonic acid] | 100 to 1000 nM | 3000 to 30000 nM |
| O=C(N[C@H]1C[C@@H]2C[C@@H]2C[C@H]2CC[C@@H](C(=O)N3CC(n4ccnc4)C3)N2C1=O)c1cc2cc(C(F)(F)P(=O)(O)O)ccc2s1 [Compound 94] | < 100 nM | 3000 to 30000 nM |

Further lines, results first:

| IC50 [1] | IC50 [2] | SMILES |
| --- | --- | --- |
| < 100 nM | 3000 to 30000 nM | O=C(N[C@H]1C[C@H]2C[C@H]2C[C@H]2CC[C@@H](C(=O)N3CC(c4ncccn4)C3)N2C1=O)c1cc2cc(C(F)(F)P(=O)(O)O)ccc2s1 [Compound 80, (difluoro(2-(((3S,6S,7aR,8aS,9aR)-5-oxo-3-(3-(pyrimidin-2-yl)azetidine-1-carbonyl)decahydro-1H-cyclopropa[d]pyrrolo[1,2-a]azocin-6-yl)carbamoyl)benzo[b]thiophen-5-yl)methyl)phosphonic acid] |
| < 100 nM | 3000 to 30000 nM | CS(=N)(=O)CC1CN(C(=O)[C@@H]2CC[C@@H]3C[C@@H]4C[C@@H]4C[C@H](NC(=O)c4cc5cc(C(F)(F)P(=O)(O)O)ccc5s4)C(=O)N32)C1 (stereo partly drawn) [Compound 83, (difluoro(2-(((3S,6S,7aR,8aS,9aR)-3-(3-((S-methysulfonimidoyl)methyl)azetidine-1-carbonyl)-5-oxodecahydro-1H-cyclopropa[d]pyrrolo[1,2-a]azocin-6-yl)carbamoyl)benzo[b]thiophen-5-yl)methyl)phosphonic acid] |
| < 100 nM | 3000 to 30000 nM | O=C(N[C@H]1C[C@@H]2C[C@@H]2C[C@H]2CC[C@@H](C(=O)N3CC(C(=O)N4CC(c5ccccn5)C4)C3)N2C1=O)c1cc2cc(C(F)(F)P(=O)(O)O)ccc2s1 [Compound 86, (difluoro(2-(((3S,6S,7aS,8aR,9aR)-5-oxo-3-(3-(3-(pyridin-2-yl)azetidine-1-carbonyl)azetidine-1-carbonyl)decahydro-1H-cyclopropa[d]pyrrolo[1,2-a]azocin-6-yl)carbamoyl)benzo[b]thiophen-5-yl)methyl)phosphonic acid] |
| < 100 nM | 300 to 3000 nM | COc1ccc(C2CCN(C(=O)[C@@H]3CC[C@@H]4C[C@H]5C[C@H]5C[C@H](NC(=O)c5cc6cc(C(F)(F)P(=O)(O)O)ccc6s5)C(=O)N43)C2)cn1 (stereo partly drawn) [Compound 88, (difluoro(2-(((3S,6S,7aS,8aR,9aR)-3-(3-(6-methoxypyridin-3-yl)pyrrolidine-1-carbonyl)-5-oxodecahydro-1H-cyclopropa[d]pyrrolo[1,2-a]azocin-6-yl)carbamoyl)benzo[b]thiophen-5-yl)methyl)phosphonic acid] |
| < 100 nM | 300 to 3000 nM | N#CC1(c2ccccn2)CN(C(=O)[C@@H]2CC[C@@H]3C[C@H]4C[C@H]4C[C@H](NC(=O)c4cc5cc(C(F)(F)P(=O)(O)O)ccc5s4)C(=O)N32)C1 [Compound 89, ((2-(((3S,6S,7aS,8aR,9aR)-3-(3-cyano-3-(pyridin-2-yl)azetidine-1-carbonyl)-5-oxodecahydro-1H-cyclopropa[d]pyrrolo[1,2-a]azocin-6-yl)carbamoyl)benzo[b]thiophen-5-yl)difluoromethyl)phosphonic acid] |
| < 100 nM | 300 to 3000 nM | O=C(N[C@H]1C[C@@H]2C[C@@H]2C[C@H]2CC[C@@H](C(=O)N3CC4(CC(=O)c5nccn54)C3)N2C1=O)c1cc2cc(C(F)(F)P(=O)(O)O)ccc2s1 [Compound 90, (difluoro(2-(((3S,6S,7aS,8aR,9aR)-5-oxo-3-(7′-oxo-6′,7′-dihydrospiro[azetidine-3,5′-pyrrolo[1,2-a]imidazole]-1-carbonyl)decahydro-1H-cyclopropa[d]pyrrolo[1,2-a]azocin-6-yl)carbamoyl)benzo[b]thiophen-5-yl)methyl)phosphonic acid] |
| 100 to 1000 nM | 3000 to 30000 nM | CC(=O)N1CCC2(C1)CN(C(=O)[C@@H]1CC[C@@H]3C[C@H]4C[C@H]4C[C@H](NC(=O)c4cc5cc(C(F)(F)P(=O)(O)O)ccc5s4)C(=O)N31)C2 [Compound 92, ((2-(((35,6S,7aS,8aR,9aR)-3-(6-acetyl-2,6-diazaspiro[3.4]octane-2-carbonyl)-5-oxodecahydro-1H-cyclopropa[d]pyrrolo[1,2-a]azocin-6-yl)carbamoyl)benzo[b]thiophen-5-yl)difluoromethyl)phosphonic acid] |
| 100 to 1000 nM | 3000 to 30000 nM | O=C(N[C@H]1C[C@@H]2C[C@@H]2C[C@H]2CC[C@@H](C(=O)N3CC(F)(C(=O)N4CCOCC4)C3)N2C1=O)c1cc2cc(C(F)(F)P(=O)(O)O)ccc2s1 [Compound 95, (difluoro(2-(((3S,6S,7aS,8aR,9aR)-3-(3-fluoro-3-(morpholine-4-carbonyl)azetidine-1-carbonyl)-5-oxodecahydro-1H-cyclopropa[d]pyrrolo[1,2-a]azocin-6-yl)carbamoyl)benzo[b]thiophen-5-yl)methyl)phosphonic acid] |
